Assay results taken from patent US20100292188A1, “Compounds Comprising A Cyclobutoxy Group” (UCB PHARMA S.A., priority 2008, published 2010).

First: COCC(=O)N1CCc2nc(-c3ccc(O[C@H]4C[C@H](N5CCCCC5)C4)cc3)sc2C1 [Compound 2, 5-(methoxyacetyl)-2-{4-[(trans-3-piperidin-1-ylcyclobutyl)oxy]phenyl}-4,5,6,7-tetrahydro[1,3]thiazolo[5,4-c]pyridine]
Second: O=C(CO)N1CCc2nc(-c3ccc(O[C@H]4C[C@H](N5CCCCC5)C4)cc3)sc2C1 [Compound 11, 2-oxo-2-[2-{4-[(trans-3-piperidin-1-ylcyclobutyl)oxy]phenyl}-6,7-dihydro[1,3]thiazolo[5,4-c]pyridin-5(4H)-yl]ethanol]
The melting point of the first is lower: 128 °C for the first, 177 °C for the second.

Going from CC(C)(C)OC(=O)N1CCc2nc(-c3ccc(O[C@H]4C[C@H](N5CCCCC5)C4)cc3)sc2C1 [Compound 3, tert-butyl 2-{4-[(trans-3-piperidin-1-ylcyclobutyl)oxy]phenyl}-6,7-dihydro[1,3]thiazolo[5,4-c]pyridine-5(4H)-carboxylate] to CC(=O)N1CCc2nc(-c3ccc(O[C@H]4C[C@H](N5CCCCC5)C4)cc3)sc2C1 [Compound 4, 5-acetyl-2-{4-[(trans-3-piperidin-1-ylcyclobutyl)oxy]phenyl}-4,5,6,7-tetrahydro[1,3]thiazolo[5,4-c]pyridine], the melting point rises from 162.3 °C to 170.3 °C.

Going from c1cc(-c2nc3c(s2)CNCC3)ccc1O[C@H]1C[C@H](N2CCCCC2)C1 [Compound 5, 2-{4-[(trans-3-piperidin-1-ylcyclobutyl)oxy]phenyl}-4,5,6,7-tetrahydro[1,3]thiazolo[5,4-c]pyridine] to NC(=O)N1CCc2nc(-c3ccc(O[C@H]4C[C@H](N5CCCCC5)C4)cc3)sc2C1 [Compound 10, 2-{4-[(trans-3-piperidin-1-ylcyclobutyl)oxy]phenyl}-6,7-dihydro[1,3]thiazolo[5,4-c]pyridine-5(4H)-carboxamide], the melting point rises from 144.5 °C to 199 °C.

First: O=C(N1CCOCC1)N1CCc2nc(-c3ccc(O[C@H]4C[C@H](N5CCCCC5)C4)cc3)sc2C1 [Compound 6, 5-(morpholin-4-ylcarbonyl)-2-{4-[(trans-3-piperidin-1-ylcyclobutyl)oxy]phenyl}-4,5,6,7-tetrahydro[1,3]thiazolo[5,4-c]pyridine]
Second: O=S(=O)(N1CCOCC1)N1CCc2nc(-c3ccc(O[C@H]4C[C@H](N5CCCCC5)C4)cc3)sc2C1 [Compound 7, 5-(morpholin-4-ylsulfonyl)-2-{4-[(trans-3-piperidin-1-ylcyclobutyl)oxy]phenyl}-4,5,6,7-tetrahydro[1,3]thiazolo[5,4-c]pyridine]
The melting point of the first is lower: 149.3 °C for the first, 178 °C for the second.

Compared with CC(=O)N1CCc2nc(-c3ccc(O[C@H]4C[C@H](N5CCOCC5)C4)cc3)sc2C1 [Compound 8, 5-acetyl-2-{4-[(trans-3-morpholin-4-ylcyclobutyl)oxy]phenyl}-4,5,6,7-tetrahydro[1,3]thiazolo[5,4-c]pyridine], CC(=O)N1CCc2nc(-c3ccc(O[C@H]4C[C@H](N5CCSCC5)C4)cc3)sc2C1 [Compound 22, 5-acetyl-2-{4-[(trans-3-thiomorpholin-4-ylcyclobutyl)oxy]phenyl}-4,5,6,7-tetrahydro[1,3]thiazolo[5,4-c]pyridine] is higher in melting point: 161.6 to 162.2 °C for the first, 196 °C for the second.

Going from NCC(=O)N1CCc2nc(-c3ccc(O[C@H]4C[C@H](N5CCCCC5)C4)cc3)sc2C1 [Compound 9, 2-oxo-2-[2-{4-[(trans-3-piperidin-1-ylcyclobutyl)oxy]phenyl}-6,7-dihydro[1,3]thiazolo[5,4-c]pyridin-5(4H)-yl]ethanamine] to NC(=O)CC(=O)N1CCc2nc(-c3ccc(O[C@H]4C[C@H](N5CCCCC5)C4)cc3)sc2C1 [Compound 25, 3-oxo-3-[2-{4-[(trans-3-piperidin-1-ylcyclobutyl)oxy]phenyl}-6,7-dihydro[1,3]thiazolo[5,4-c]pyridin-5(4H)-yl]propanamide], the melting point falls from 199 °C to 176 °C.

Going from CC(=O)N1CCc2nc(-c3ccc(O[C@H]4C[C@H](N5CCN(C(C)C)CC5)C4)cc3)sc2C1 [Compound 12, 5-acetyl-2-(4-{[trans-3-(4-isopropylpiperazin-1-yl)cyclobutyl]oxy}phenyl)-4,5,6,7-tetrahydro[1,3]thiazolo[5,4-c]pyridine] to CC(=O)N1CCc2nc(-c3ccc(O[C@H]4C[C@H](N5CCC(F)(F)CC5)C4)cc3)sc2C1 [Compound 13, 5-acetyl-2-(4-{[trans-3-(4,4-difluoropiperidin-1-yl)cyclobutyl]oxy}phenyl)-4,5,6,7-tetrahydro[1,3]thiazolo[5,4-c]pyridine], the melting point rises from 109 °C to 175 °C.

Compared with OCC(O)CN1CCc2nc(-c3ccc(O[C@H]4C[C@H](N5CCCCC5)C4)cc3)sc2C1 (stereo partly drawn) [Compound 15, 3-[2-{4-[(trans-3-piperidin-1-ylcyclobutyl)oxy]phenyl}-6,7-dihydro[1,3]thiazolo[5,4-c]pyridin-5(4H)-yl]propane-1,2-diol], OC[C@@H](O)CN1CCc2nc(-c3ccc(O[C@H]4C[C@H](N5CCCCC5)C4)cc3)sc2C1 [Compound 16, (2S)-3-[2-{4-[(trans-3-piperidin-1-ylcyclobutyl)oxy]phenyl}-6,7-dihydro[1,3]thiazolo[5,4-c]pyridin-5(4H)-yl]propane-1,2-diol] is higher in melting point: 169 °C for the first, 175 °C for the second.

Going from OC[C@H](O)CN1CCc2nc(-c3ccc(O[C@H]4C[C@H](N5CCCCC5)C4)cc3)sc2C1 [Compound 17, (2R)-3-[2-{4-[(trans-3-piperidin-1-ylcyclobutyl)oxy]phenyl}-6,7-dihydro[1,3]thiazolo[5,4-c]pyridin-5(4H)-yl]propane-1,2-diol] to OCCN1CCc2nc(-c3ccc(O[C@H]4C[C@H](N5CCCCC5)C4)cc3)sc2C1 [Compound 37, 2-[2-{4-[(trans-3-piperidin-1-ylcyclobutyl)oxy]phenyl}-6,7-dihydro[1,3]thiazolo[5,4-c]pyridin-5(4H)-yl]ethanol], the melting point falls from 172 °C to 142 °C.

First: NC(=O)CN1CCc2nc(-c3ccc(O[C@H]4C[C@H](N5CCCCC5)C4)cc3)sc2C1 [Compound 18, 2-[2-{4-[(trans-3-piperidin-1-ylcyclobutyl)oxy]phenyl}-6,7-dihydro[1,3]thiazolo[5,4-c]pyridin-5(4H)-yl]acetamide]
Second: COC(=O)CN1CCc2nc(-c3ccc(O[C@H]4C[C@H](N5CCCCC5)C4)cc3)sc2C1 [Compound 26, methyl [2-{4-[(trans-3-piperidin-1-ylcyclobutyl)oxy]phenyl}-6,7-dihydro[1,3]thiazolo[5,4-c]pyridin-5(4H)-yl]acetate]
The melting point of the first is higher: 231 °C for the first, 221 °C for the second.

Compared with CC(=O)N1CCc2nc(-c3ccc(O[C@H]4C[C@H](N5CCCCCC5)C4)cc3)sc2C1 [Compound 19, 5-acetyl-2-{4-[(trans-3-azepan-1-ylcyclobutyl)oxy]phenyl}-4,5,6,7-tetrahydro[1,3]thiazolo[5,4-c]pyridine], CC(=O)N1CCc2sc(-c3ccc(O[C@H]4C[C@H](N5CCCCC5)C4)cc3)nc2C1 [Compound 29, 5-acetyl-2-{4-[(trans-3-piperidin-1-ylcyclobutyl)oxy]phenyl}-4,5,6,7-tetrahydro[1,3]thiazolo[4,5-c]pyridine] is higher in melting point: 135 °C for the first, 154.2 °C for the second.

First: CCNC(=O)N1CCc2nc(-c3ccc(O[C@H]4C[C@H](N5CCCCC5)C4)cc3)sc2C1 [Compound 21, N-ethyl-2-{4-[(trans-3-piperidin-1-ylcyclobutyl)oxy]phenyl}-6,7-dihydro[1,3]thiazolo[5,4-c]pyridine-5(4H)-carboxamide]
Second: O=C(CC(F)(F)F)N1CCc2nc(-c3ccc(O[C@H]4C[C@H](N5CCCCC5)C4)cc3)sc2C1 [Compound 33, 2-{4-[(trans-3-piperidin-1-ylcyclobutyl)oxy]phenyl}-5-(3,3,3-trifluoropropanoyl)-4,5,6,7-tetrahydro[1,3]thiazolo[5,4-c]pyridine]
The melting point of the first is higher: 200 °C for the first, 167 to 168 °C for the second.

First: O[C@H]1C[C@@H](N2CCc3nc(-c4ccc(O[C@H]5C[C@H](N6CCCCC6)C5)cc4)sc3C2)C1 [Compound 24, cis-3-[2-{4-[(trans-3-piperidin-1-ylcyclobutyl)oxy]phenyl}-6,7-dihydro[1,3]thiazolo[5,4-c]pyridin-5(4H)-yl]cyclobutanol]
Second: Cc1n[nH]nc1C(=O)N1CCc2nc(-c3ccc(O[C@H]4C[C@H](N5CCCCC5)C4)cc3)sc2C1 [Compound 35, 5-[(5-methyl-2H-1,2,3-triazol-4-yl)carbonyl]-2-{4-[(trans-3-piperidin-1-ylcyclobutyl)oxy]phenyl}-4,5,6,7-tetrahydro[1,3]thiazolo[5,4-c]pyridine]
The melting point of the first is higher: 169 °C for the first, 150 to 154 °C for the second.

First: CC(=O)N1CCc2oc(-c3ccc(O[C@H]4C[C@H](N5CCCCC5)C4)cc3)nc2C1 [Compound 28, 5-acetyl-2-{4-[(trans-3-piperidin-1-ylcyclobutyl)oxy]phenyl}-4,5,6,7-tetrahydro[1,3]oxazolo[4,5-c]pyridine]
Second: CC(=O)N1CCCc2sc(-c3ccc(O[C@H]4C[C@H](N5CCCCC5)C4)cc3)nc21 [Compound 30, 4-acetyl-2-{4-[(trans-3-piperidin-1-ylcyclobutyl)oxy]phenyl}-4,5,6,7-tetrahydro[1,3]thiazolo[4,5-b]pyridine]
The melting point of the first is lower: 141.9 °C for the first, 146 °C for the second.

Compared with CC(=O)N1CCCCc2nc(-c3ccc(O[C@H]4C[C@H](N5CCCCC5)C4)cc3)sc21 [Compound 31, 4-acetyl-2-{4-[(trans-3-piperidin-1-ylcyclobutyl)oxy]phenyl}-5,6,7,8-tetrahydro-4H-[1,3]thiazolo[5,4-b]azepine], CC(=O)N1CCc2nc(-c3ccc(O[C@H]4C[C@H](N5CCCCC5)C4)cc3F)sc2C1 [Compound 36, 5-acetyl-2-{2-fluoro-4-[(trans-3-piperidin-1-ylcyclobutyl)oxy]phenyl}-4,5,6,7-tetrahydro[1,3]thiazolo[5,4-c]pyridine] is higher in melting point: 49 °C for the first, 142.8 °C for the second.

First: c1cc2sc(-c3ccc(O[C@H]4C[C@H](N5CCCCC5)C4)cc3)nc2cn1 [Compound 32, 2-{4-[(trans-3-piperidin-1-ylcyclobutyl)oxy]phenyl}[1,3]thiazolo[4,5-c]pyridine]
Second: O=C(CCCN1CC[S+]([O-])CC1)N1CCc2nc(-c3ccc(O[C@H]4C[C@H](N5CCCCC5)C4)cc3)sc2C1 [Compound 41, 5-[4-(1-oxidothiomorpholin-4-yl)butanoyl]-2-{4-[(trans-3-piperidin-1-ylcyclobutyl)oxy]phenyl}-4,5,6,7-tetrahydro[1,3]thiazolo[5,4-c]pyridine]
The melting point of the first is lower: 65 °C for the first, 165 °C for the second.
